# Columns and labels:
# [1] = tested on: RA patients treated with adalimumab in clinical trials in North America and Europe
# Method: The rate of TB was calculated for the period before screening was initiated (primarily Phase I trials) and the period after screening was implemented. The screening program consisted of a clinical interview, a tuberculin skin test, and, in most patients, a chest X-ray (CXR). The definition of PPD-positive depended on local country-specific guidelines. For those people who were PPD-positive, or for whom the investigator felt the risk of TB reactivation was high, INH was given for prophylaxis.
# The methodology differed among protocols. For instance, in Europe and Australia, it was initially used CXR only, and in later studies, CXR and purified protein derivative skin test (PPD) were both used. By contrast, in US and Canada, CXR and PPD were both used.
# [2] = tested on: MTX-naïve adult patients with early RA (<3 years); assay: Study J: escalation of injectable medicine from eow to weekly dosing; assay type: in vivo, human
# Method: Study J was a 2-year, double-blind, active comparator-controlled, Phase III study. […] In patients receiving ADA+MTX or MTX monotherapy, the 7.5 mg MTX weekly dosage increased to 20 mg over 8 weeks, as tolerated and as needed. Monotherapy patients received either placebo pills (adalimumab arm) or placebo injections (MTX arm). Efficacy outcomes measured included ACR response, DAS28 remission, major clinical response, and radiographic change from baseline.
# MTX optimization was required before starting weekly injections (to 20 mg weekly, maximum). Once initiated, weekly dosing of injectable medicine was to be maintained until end of study. Criteria for identification of dosage escalators were a sequence of 4 consecutive injections for which the interval for every two consecutive injections was ≦10 days, and/or that the date of escalation, defined as the second of the 4 injections, had to be on or after Week 16 in Year 1. Three dosage escalator categories were defined, based on best ACR response rate achieved any time prior to escalation: Group A=ACR non-responders (never achieved ACR20 prior to dosage escalation), Group B=Partial responders (achieved ACR20 or ACR50 at least once prior to escalation, but never ACR70), and Group C=ACR70 responders (achieved ACR70 at least once prior to escalation). Data are from the intention-to-treat (ITT) population, with missing data analyzed by non-responder imputation (NRI) for clinical measures and by linear imputation for total Sharp scores (TSS).
# [3] = tested on: patients with long-standing RA who had inadequate responses to MTX; assay: Study 1 (adalimumab + MTX vs placebo + MTX, 12-month RCT plus OLE): radiographic progression (TSS, JE, JSN); assay type: in vivo, human
# Method: The study design included a 12 month, double blind, randomized, placebo-controlled trial.
# Patients were grouped into three cohorts based on baseline CRP concentrations: low (<1 mg/dL); intermediate (1-4 mg/dL); and high (>4 mg/dL). Analyses were further conducted in two categories of patients according to their change in CRP concentrations at Week 12: those with a ≧20% decrease in CRP from baseline; or those with a <20% decrease in CRP from baseline. The following efficacy and radiographic measures were analyzed at Week 52 in the three baseline CRP categories and in the two Week 12 change in CRP categories: DAS28, ACR 20/50/70, Health assessment questionnaire (HAQ), and Total Sharp score (TSS).
# Two readers assessed X-rays performed at baseline (start of RCT), 1 year (end of RCT), and 3 years (post 2 years OLE). Changes from baseline in Total Sharp Score (TSS), Joint Erosions (JE), and Joint Space Narrowing (JSN) were calculated. ACR 20, 50, and 70 response rates, as well as TJC and SJC, were also measured.
# [4] = tested on: patients with moderate to severe RA; assay: Study 1: Health Utilities Index Mark 3 (HUI3); assay type: in vivo, human; settings: week 52
# Method: The HUI3 was assessed at baseline, and at several time points during the study. Health Utility Index 3 (scale=0-1) measures preference of a health state, with “1” denoting perfect health and “0” denoting death. HUI3 changes of ≧0.03 are considered clinically important. The HUI3 classification system consists of 8 attributes and 5 or 6 levels on each attribute, ranging from full function to severe impairment.
# [5] = tested on: patients with RA; assay: Study I (adalimumab 40 mg eow + MTX vs placebo + MTX, 24 weeks): FACIT-F fatigue; assay type: in vivo, human; settings: for mean FACIT-F change from baseline: week 24 (6 months)
# Method: FACIT-F was administered at baseline, at 1 or 2 time points during the study, and at the end of the study. The questionnaire asked each patient the following “Below is a list of statements that other people with your illness have said are important. By circling one (1) number per line, please indicate how true each statement has been for you during the past 7 days.” The questions in the questionnaire used to determine the FACIT score included the following, where each patient indicated the appropriate number (0-4): I feel fatigued; I feel weak all over; I feel listless (“washed out”); I feel tired; I have trouble starting things because I am tired; I have trouble finishing things because I am tired; I have energy; I am able to do my usual activities; I need to sleep during the day; I am too tired to eat; I need help doing my usual activities; I am frustrated by being too tired to do the things I want to do; I have to limit my social activity because I am tired. FACIT-F scores range from 0-52, with higher scores representing less fatigue. FACIT-F changes of ≧4 are considered clinically meaningful.
# For Study I, the mean change in baseline for the FACIT-F score at 6 months was 8.1 for ada 40 mg eow+mtx and 2.5 for placebo+mtx (p=0.01). The minimum clinical important difference was determined to be ≧4.0.
# [6] = tested on: patients with RA; assay: Study I: HUI3 health utility; assay type: in vivo, human; settings: for mean HUI3 change from baseline: week 24 (6 months)
# Method: Inclusion criteria for this study included: all patients had severe active disease; and all patients had failed prior DMARD(s).
# The Health Utilities Index Mark 3 (HUI3) was assessed at three time points. HUI 3 consists of 8 attributes: vision, hearing, speech, ambulation, dexterity, emotion, cognition, and pain. HUI3 score changes of ≧0.03 are considered clinically important. […] As can also be seen in this figure, the Study 2 study population started with baseline values reflecting a patient population with a more severe disease activity than in Study I, as documented by TJC, SJC, HAQ, CRP, and number of previous DMARDs.
structure (smiles),measurement,setting,value
"NNC(=O)c1ccncc1 [INH, isoniazid, reference compound]",patients who developed TB after INH prophylaxis,[1]; 835 patients who received INH,0.5%
same,subjects who developed TB after INH prophylaxis,"[1]; Study A, 712 high-risk subjects given INH before adalimumab",0.6%
CN(Cc1cnc2nc(N)nc(N)c2n1)c1ccc(C(=O)N[C@@H](CCC(=O)O)C(=O)O)cc1 [MTX Monotherapy],Patients who became ACR20 responders after increase to weekly dosing,[2]; 1 year,4%
same,Patients who became ACR50 responders after increase to weekly dosing,[2]; 1 year,1%
same,Patients who reached DAS28 < 2.6 (remission) after increase to weekly dosing,[2]; 1 year,0%
same,Patients who became ACR20 responders after increase to weekly dosing,[2]; 2 years,4%
same,Patients who became ACR50 responders after increase to weekly dosing,[2]; 2 years,2%
same,Patients who reached DAS28 < 2.6 (remission) after increase to weekly dosing,[2]; 2 years,1%
same,Patients with Major Clinical Response after increase to weekly dosing,[2]; ACR70 for ≧6 consecutive months over a 2-year period,1%
"CN(Cc1cnc2nc(N)nc(N)c2n1)c1ccc(C(=O)N[C@@H](CCC(=O)O)C(=O)O)cc1 [placebo+mtx, methotrexate]",mean change from baseline in Total Sharp Score,[3]; 12 months (blinded),2.8
same,mean change from baseline in joint erosion score,[3]; 12 months (blinded),1.7
same,mean change from baseline in joint space narrowing score,[3]; 12 months (blinded),1.2
same,mean change from baseline in joint erosion score,[3]; 36 months (open-label),1.7
same,mean change from baseline in joint space narrowing score,[3]; 36 months (open-label),1.3
same,mean change from baseline in Total Sharp Score,[3]; 36 months (open-label; all patients on adalimumab 40 mg eow + mtx after month 12),3.0
same,mean HUI3 improvement from baseline,[4],+0.07
same,relative HUI3 improvement from baseline,[4],+18%
same,relative FACIT-F change from baseline,[5]; week 24,+9%
same,mean FACIT-F change from baseline,[5],2.5
same,mean FACIT-F change from baseline,[5]; listed as placebo + MTX,+2.5
same,relative HUI3 change from baseline,[6]; week 24,+10%
same,mean HUI3 change from baseline,[6],0.04
same,mean HUI3 change from baseline,[6]; listed as Placebo + mtx,0.04
same,mean HUI3 change from baseline,[6]; listed as placebo + MTX,+0.04

# Reference: patent publication US20120171123A1, “USES AND COMPOSITIONS FOR TREATMENT OF RHEUMATOID ARTHRITIS” (priority 2006, published 2012)
